Results taken from patent publication US20230257385A1, “SALT AND SOLID FORMS OF TABERNANTHALOG” (priority 2021, published 2023).

Columns and labels:
Type in all cases: physicochemical
[1] = Suspension equilibration of sorbate salt at 20 and 40° C. (Example 10, Experiments 3, 4, 9); settings: for Observations (t = 1 d @ 40° C.) / Observations (t = 10 d @ 40° C.): sorbate salt Form A in 5 vol solvent; for Observations (t = 1 d @ 40° C.) / Observations (t = 10 d @ 40° C.) / Observations (t = 0 @ 40° C.) / XRPD (IPC, 6 d, wet) / XRPD (post oven dried): one solvent per sample; for Observations (t = 0 @ 40° C.): sorbate salt Form A, ca. 50 mg in 5 vol solvent; for XRPD (IPC, 6 d, wet): moist pellet after 6 d; for XRPD (post oven dried): pellet after oven drying
Protocol: The purpose of this panel is to determine if Form A evolves into a supra-ordinate form. The companion panel at 40° C. set-point is in place to detect enantiotropic behaviour via different relative proportions in different solvents. XRPD data of the moist pellets obtained from the suspension equilibration study at 20° C.
The relevant solvent (5 vol) was added to the appropriate vial and the suspensions were stirred and warmed to the predetermined temperature with stirring. […]

[2] = Dynamic vapour sorption (DVS) of selected salts (Example 8)
Protocol: DVS: The moisture sorption properties of the feed API were analyzed by DVS Intrinsic instrument (Surface Measurement System). Approximately 20-50 mg of API was weighed on an aluminum pan and loaded into the instrument equilibrated at 25° C. The sample was allowed to equilibrate under dry atmosphere (0% relative humidity) for 60 minutes before increasing the humidity from 0% to 30% at 5% step increment and from 30% to 90% at 10% step increment. A desorption cycle was also applied from 90% to 30% (10% step) and from 30% to 0% (5% decrement). A rate of change in mass per time unit (dm/dt) of 0.002%/min was set as the equilibrium parameter. Kinetic and isotherm graphs were calculated.

[3] = Suspension equilibration of the monofumarate salt at 20° C. and 40° C. (Experiment References 6, 7, 8); settings: suspension equilibration at 20° C.
Protocol: Separate portions of the tabernanthalog monofumarate salt (Sample Reference 1, Pattern #1, ca 50 mg, 1.0 wt.) were charged to separate vessels. The appropriate solvents (e.g. 250 μl, 5.0 vol), were charged to the vessels and the mixtures were stirred for several days at their relevant temperatures e.g. 20 and 40° C. After this time the products were cooled, isolated by centrifugation, analyzed as wet pellet (suffix-1) by XRPD and dried under reduced pressure at 40° C. (suffix-2) and re-analyzed by XRPD and companion analyses for evidence of alternative crystalline forms.
The tabernanthalog monofumarate salt (Sample Reference 1, Pattern #1) was subjected to this technique at ambient temperature (20° C., Table 35) and at elevated temperature (40° C., Table 36), in a diverse range of solvents. The primary aim is to identify a stable, anhydrous monotropic form that is suitable for future development.
The tabernanthalog monofumarate salt (Sample Reference 1, Pattern #1, 1.0 g, 1 wt) was suspended in water (5 ml, 5 vol) at 20° C. for 10 days (the suspension was sub-sampled to monitor the conversion to Pattern #6a by XRPD). The suspension was filtered through a sintered funnel and the filter cake was dried under nitrogen flow for ca. 24 h. Sample 8-A4 (Experiment Reference 8-Sample Reference A4) was collected as a brown solid (560.6 mg, 56% yield uncorr.). Yield was not corrected for impurities, solvents, etc.

[4] = suspension equilibration at 40° C.

C/C=C/C=C/C(=O)O.COc1ccc2c3c([nH]c2c1)CCN(C)CC3 [Experiment 4-Sample P]
Observations (t = 1 d @ 40° C.) [1]: Suspension | Observations (t = 10 d @ 40° C.) [1]: Suspension | Observations (t = 0 @ 40° C.) [1]: Suspension | XRPD (IPC, 6 d, wet) [1, 4]: Form A | XRPD (post oven dried) [1, 4]: Form A

C/C=C/C=C/C(=O)O.COc1ccc2c3c([nH]c2c1)CCN(C)CC3 [Experiment 4-Sample Q]
Observations (t = 1 d @ 40° C.) [1]: Suspension | Observations (t = 10 d @ 40° C.) [1]: Suspension | Observations (t = 0 @ 40° C.) [1]: Suspension | XRPD (IPC, 6 d, wet) [1, 4]: Form A | XRPD (post oven dried) [1, 4]: Form A

C/C=C/C=C/C(=O)O.COc1ccc2c3c([nH]c2c1)CCN(C)CC3 [Experiment 4-Sample R]
Observations (t = 1 d @ 40° C.) [1]: Suspension | Observations (t = 10 d @ 40° C.) [1]: Suspension | Observations (t = 0 @ 40° C.) [1]: Suspension | XRPD (IPC, 6 d, wet) [1, 4]: Pattern #4 | XRPD (post oven dried) [1, 4]: Form A

CC=CC=CC(=O)O.COc1ccc2c3c([nH]c2c1)CCN(C)CC3 [Experiment 9-Sample C]
XRPD (post Filter dried) ([1]; Experiment 9, suspension equilibration at 40° C., filter dried): Form A | XRPD (IPC, 5 d, wet) ([1]; Experiment 9, suspension equilibration at 40° C., targets Pattern #3, #4, #5): Form A

COc1ccc2c3c([nH]c2c1)CCN(C)CC3.O=C(O)c1ccccc1 [Tabernanthalog• Benzoate]
DVS 0 to 90 to 0% RH (dm/dt <0.002%), mass change ([2]; desorption, 0.0% RH): −0.037% | DVS 0 to 90 to 0% RH (dm/dt <0.002%), mass change ([2]; desorption, 5.0% RH): −0.034% | DVS 0 to 90 to 0% RH (dm/dt <0.002%), mass change ([2]; desorption, 10.0% RH): −0.032% | DVS 0 to 90 to 0% RH (dm/dt <0.002%), mass change ([2]; desorption, 15.0% RH): −0.032% | DVS 0 to 90 to 0% RH (dm/dt <0.002%), mass change ([2]; desorption, 20.0% RH): −0.029% | DVS 0 to 90 to 0% RH (dm/dt <0.002%), mass change ([2]; desorption, 25.0% RH): −0.028% | DVS 0 to 90 to 0% RH (dm/dt <0.002%), mass change ([2]; desorption, 30.0% RH): −0.023% | DVS 0 to 90 to 0% RH (dm/dt <0.002%), mass change ([2]; desorption, 40.0% RH): −0.018% | DVS 0 to 90 to 0% RH (dm/dt <0.002%), mass change ([2]; desorption, 50.0% RH): −0.014% | DVS 0 to 90 to 0% RH (dm/dt <0.002%), mass change ([2]; desorption, 60.0% RH): −0.001% | DVS 0 to 90 to 0% RH (dm/dt <0.002%), mass change ([2]; desorption, 70.0% RH): 0.034% | DVS 0 to 90 to 0% RH (dm/dt <0.002%), mass change ([2]; desorption, 80.0% RH): 0.063% | DVS 0 to 90 to 0% RH (dm/dt <0.002%), mass change ([2]; desorption, 90.0% RH): 0.118% | DVS 0 to 90 to 0% RH (dm/dt <0.002%), mass change ([2]; sorption, 0.0% RH): 0.00% | DVS 0 to 90 to 0% RH (dm/dt <0.002%), mass change ([2]; sorption, 5.0% RH): −0.001% | DVS 0 to 90 to 0% RH (dm/dt <0.002%), mass change ([2]; sorption, 10.0% RH): 0.002% | DVS 0 to 90 to 0% RH (dm/dt <0.002%), mass change ([2]; sorption, 15.0% RH): −0.002% | DVS 0 to 90 to 0% RH (dm/dt <0.002%), mass change ([2]; sorption, 20.0% RH): −0.003% | DVS 0 to 90 to 0% RH (dm/dt <0.002%), mass change ([2]; sorption, 25.0% RH): −0.002% | DVS 0 to 90 to 0% RH (dm/dt <0.002%), mass change ([2]; sorption, 30.0% RH): 0.002% | DVS 0 to 90 to 0% RH (dm/dt <0.002%), mass change ([2]; sorption, 40.0% RH): 0.002% | DVS 0 to 90 to 0% RH (dm/dt <0.002%), mass change ([2]; sorption, 50.0% RH): 0.006% | DVS 0 to 90 to 0% RH (dm/dt <0.002%), mass change ([2]; sorption, 60.0% RH): 0.009% | DVS 0 to 90 to 0% RH (dm/dt <0.002%), mass change ([2]; sorption, 70.0% RH): 0.009% | DVS 0 to 90 to 0% RH (dm/dt <0.002%), mass change ([2]; sorption, 80.0% RH): 0.046% | DVS 0 to 90 to 0% RH (dm/dt <0.002%), mass change ([2]; sorption, 90.0% RH): 0.118%

COc1ccc2c3c([nH]c2c1)CCN(C)CC3.O=C(O)/C=C/C(=O)O [Tabernanthalog•Monofumarate (CAT8931)]
Observations (t = 0 @ 20° C.) ([3]; 6-A, Acetone): Suspension | Observations (t = 1 d @ 20° C.) ([3]; 6-A, Acetone): Suspension | Observations t = 7 d @ 20° C. ([3]; 6-A, Acetone): Suspension | Observations (t = 0 @ 20° C.) ([3]; 6-B, Acetonitrile): Suspension | Observations (t = 1 d @ 20° C.) ([3]; 6-B, Acetonitrile): Suspension | Observations t = 7 d @ 20° C. ([3]; 6-B, Acetonitrile): Suspension | Observations (t = 0 @ 20° C.) ([3]; 6-C, tert-Butylmethyl ether): Suspension | Observations (t = 1 d @ 20° C.) ([3]; 6-C, tert-Butylmethyl ether): Suspension | Observations t = 7 d @ 20° C. ([3]; 6-C, tert-Butylmethyl ether): Suspension | Observations (t = 0 @ 20° C.) ([3]; 6-D, Chlorobenzene): Suspension | Observations (t = 1 d @ 20° C.) ([3]; 6-D, Chlorobenzene): Suspension | Observations t = 7 d @ 20° C. ([3]; 6-D, Chlorobenzene): Suspension | Observations (t = 0 @ 20° C.) ([3]; 6-E, Dichloromethane): Suspension | Observations (t = 1 d @ 20° C.) ([3]; 6-E, Dichloromethane): Suspension | Observations t = 7 d @ 20° C. ([3]; 6-E, Dichloromethane): Suspension | Observations (t = 0 @ 20° C.) ([3]; 6-F, Ethanol): Suspension | Observations (t = 1 d @ 20° C.) ([3]; 6-F, Ethanol): Suspension | Observations t = 7 d @ 20° C. ([3]; 6-F, Ethanol): Suspension | Observations (t = 0 @ 20° C.) ([3]; 6-G, Ethyl acetate): Suspension | Observations (t = 1 d @ 20° C.) ([3]; 6-G, Ethyl acetate): Suspension | Observations t = 7 d @ 20° C. ([3]; 6-G, Ethyl acetate): Suspension | Observations (t = 0 @ 20° C.) ([3]; 6-H, Ethyl formate): Suspension | Observations (t = 1 d @ 20° C.) ([3]; 6-H, Ethyl formate): Suspension | Observations t = 7 d @ 20° C. ([3]; 6-H, Ethyl formate): Suspension | Observations (t = 0 @ 20° C.) ([3]; 6-I, Heptane): Suspension | Observations (t = 1 d @ 20° C.) ([3]; 6-I, Heptane): Suspension | Observations t = 7 d @ 20° C. ([3]; 6-I, Heptane): Suspension | Observations (t = 0 @ 20° C.) ([3]; 6-J, Isopropyl acetate): Suspension | Observations (t = 1 d @ 20° C.) ([3]; 6-J, Isopropyl acetate): Suspension | Observations t = 7 d @ 20° C. ([3]; 6-J, Isopropyl acetate): Suspension | Observations (t = 0 @ 20° C.) ([3]; 6-K, Methanol): Suspension | Observations (t = 1 d @ 20° C.) ([3]; 6-K, Methanol): Suspension | Observations t = 7 d @ 20° C. ([3]; 6-K, Methanol): Suspension | Observations (t = 0 @ 20° C.) ([3]; 6-L, Methyl acetate): Suspension | Observations (t = 1 d @ 20° C.) ([3]; 6-L, Methyl acetate): Suspension | Observations t = 7 d @ 20° C. ([3]; 6-L, Methyl acetate): Suspension | Observations (t = 0 @ 20° C.) ([3]; 6-M, Methylethyl ketone): Suspension | Observations (t = 1 d @ 20° C.) ([3]; 6-M, Methylethyl ketone): Suspension | Observations t = 7 d @ 20° C. ([3]; 6-M, Methylethyl ketone): Suspension | Observations (t = 0 @ 20° C.) ([3]; 6-N, 2-Methyl THF): Suspension | Observations (t = 1 d @ 20° C.) ([3]; 6-N, 2-Methyl THF): Suspension | Observations t = 7 d @ 20° C. ([3]; 6-N, 2-Methyl THF): Suspension | Observations (t = 0 @ 20° C.) ([3]; 6-O, Nitromethane): Suspension | Observations (t = 1 d @ 20° C.) ([3]; 6-O, Nitromethane): Suspension | Observations t = 7 d @ 20° C. ([3]; 6-O, Nitromethane): Suspension | Observations (t = 0 @ 20° C.) ([3]; 6-P, 2-Propanol): Suspension | Observations (t = 1 d @ 20° C.) ([3]; 6-P, 2-Propanol): Suspension | Observations t = 7 d @ 20° C. ([3]; 6-P, 2-Propanol): Suspension | Observations (t = 0 @ 20° C.) ([3]; 6-Q, Tetrahydrofuran): Suspension | Observations (t = 1 d @ 20° C.) ([3]; 6-Q, Tetrahydrofuran): Suspension | Observations t = 7 d @ 20° C. ([3]; 6-Q, Tetrahydrofuran): Suspension | Observations (t = 0 @ 20° C.) ([3]; 6-R, Toluene): Suspension | Observations (t = 1 d @ 20° C.) ([3]; 6-R, Toluene): Suspension | Observations t = 7 d @ 20° C. ([3]; 6-R, Toluene): Suspension | Observations (t = 0 @ 20° C.) ([3]; 6-S, Water): Suspension | Observations (t = 1 d @ 20° C.) ([3]; 6-S, Water): Suspension | Observations t = 7 d @ 20° C. ([3]; 6-S, Water): Suspension
